The values below are quoted from earlier work in US8729024B2, “Targeted delivery of pharmaceutical compounds” (The Resesarch Foundation of State University of New York, priority 2006, dated 2014).

This series deals with animal models of Duchenne muscular dystrophy (DMD), multiple sclerosis, myasthenia gravis, hearing loss and traumatic nerve injury.

For the compound `CC(=O)N[C@@H](CC(C)C)C(=O)N[C@@H](CC(C)C)C(=O)N[C@H](C=O)CCCNC(=N)N` [leupeptin], the “therapeutic effect in animal models” value is recorded as “therapeutic benefit”.
